The values below come from patent publication US20260250257A1, “ANTIBACTERIAL AND SYNERGISTIC ACTIVE COMPOUND AND USE THEREOF” (EAST CHINA UNIVERSITY OF SCIENCE AND TECHNOLOGY, priority 2023, published 2026).

What all share (assay type): cell-based
The subject of assay [1] is ATCC25922 strain (Escherichia coli). The assay is described as follows: Checkerboard antibacterial synergistic activity test with polymyxin E (FIC). More on the design: key: FIC≤0.5 synergy; 0.5–1 additive; 1–2 indifferent; ≥2 antagonism. Particulars: combined with polymyxin E. The protocol: (§1) Polymyxin E was diluted in sterile MH broth medium to concentrations of 16, 8, 4, 2, 1, 0.5, 0.25, 0.125, 0.0625, 0.031, and 0.015 μg/ml, and the drug to be tested was diluted to concentrations of 256, 128, 64, 32, 16, 8, and 4 μg/ml. According to the checkerboard method, combinations of the drug to be tested and polymyxin at different concentrations in ascending order were placed into a 96-well plate, and corresponding blank control groups were set up. 50 μl of the drug solution was added to each well, then 100 μl of bacterial liquid was added, and incubated in a 37° C. incubator for 16 hours. […] Calculation and judgment criteria:
(§2) Fractional Inhibitory Concentration (FIC) is calculated as follows: […]
(§3) Judgment criteria: FIC≤0.5: synergistic effect; 0.5<FIC<1: additive effect; 1<FIC<2: indifferent effect; FIC≥2: antagonistic effect.
(§4) In the table: ATCC19606 strain is Acinetobacter baumannii, ATCC25922 strain is Escherichia coli, ATCC13883 strain is Klebsiella pneumoniae, ATCC9027 strain is Pseudomonas aeruginosa. All four strains were purchased from ATCC.

Assay [2] concerns ATCC9027 strain (Pseudomonas aeruginosa). Described as above. The note with it: combined with polymyxin E. More on the design: key: FIC≤0.5 synergy; 0.5–1 additive; 1–2 indifferent; ≥2 antagonism. The protocol:
as §1, §2, §3, §4

Assay [3] concerns ATCC19606 strain (Acinetobacter baumannii). The description is as above. The note with it: combined with polymyxin E. Details: key: FIC≤0.5 synergy; 0.5–1 additive; 1–2 indifferent; ≥2 antagonism. The protocol: as §1, §2, §3, §4
Assay [4] has as its system ATCC13883 strain (Klebsiella pneumoniae). The description is as above. The note with it: combined with polymyxin E. Details: key: FIC≤0.5 synergy; 0.5–1 additive; 1–2 indifferent; ≥2 antagonism. The method, then: as §1, §2, §3, §4
The subject of assay [5] is ATCC25922 strain (Escherichia coli). The assay is described as follows: Broth microdilution, antibacterial activity of the compound used alone. From the text:
(§5) The broth microdilution method was used to test the antibacterial effects of the compounds of the present invention against various Gram-negative bacterial strains when used alone.

In assay [6] the test system is ATCC9027 strain (Pseudomonas aeruginosa). Described as above.
Description: as §5

Assay [7] concerns ATCC19606 strain (Acinetobacter baumannii). The description is as above.
Description: as §5

Assay [8] relates to ATCC13883 strain (Klebsiella pneumoniae). The assay is described as above.
Description: as §5

In brackets after ≈: the same amount, converted by molar mass.

Consider `CC(C)c1cccc(-c2c[nH]c(N=C(N)N)n2)c1` [Compound I-16], for which the “Synergistic activity (FIC value) ATCC25922” value in assay [1] is on record as 0.5. The “Synergistic activity (FIC value) ATCC9027” value in assay [2] was determined as 0.63. Also, in assay [3], the “Synergistic activity (FIC value) ATCC19606” value came out at 0.3. Besides, in assay [4], the “Synergistic activity (FIC value) ATCC13883” value is given as 0.25. The “Antibacterial activity of the compound of Formula I, ATCC25922” value (shortened to “Antibacterial activity … ATCC25922”) in assay [5] is 256 µg/mL. For the same compound, the “Antibacterial activity of the compound of Formula I, ATCC9027” value (“Antibacterial activity … ATCC9027” for short) in assay [6] is 256 µg/mL. Also, in assay [7], the “Antibacterial activity of the compound of Formula I, ATCC19606” value (shortened to “Antibacterial activity … ATCC19606”) worked out at 256 µg/mL. Also, the “Antibacterial activity of the compound of Formula I, ATCC13883” value (“Antibacterial activity … ATCC13883” for short) in assay [8] was 256 µg/mL.
For `CS(=O)(=O)c1ccc(Oc2cccc(-c3csc(N=C(N)N)n3)c2)cc1` [Compound I-106], in assay [1], the “Synergistic activity (FIC value) ATCC25922” value amounted to 0.53. In assay [2], the “Synergistic activity (FIC value) ATCC9027” value is given as 1.25. In assay [3], the “Synergistic activity (FIC value) ATCC19606” value came to 1.25. For the same compound, the “Synergistic activity (FIC value) ATCC13883” value in assay [4] was 1.25. Further, the MIC in assay [5] (read-out: Antibacterial activity of the compound of Formula I, ATCC25922) worked out at 256 µg/mL (≈ 659 µM); in assay [6] (read-out: Antibacterial activity of the compound of Formula I, ATCC9027), 256 µg/mL (≈ 659 µM); in assay [7] (read-out: Antibacterial activity of the compound of Formula I, ATCC19606) it was 256 µg/mL (≈ 659 µM); in assay [8] (read-out: Antibacterial activity of the compound of Formula I, ATCC13883), 256 µg/mL (≈ 659 µM).
Consider `NC(N)=Nc1nc(-c2cc(C(F)(F)F)c(O)c(C(F)(F)F)c2)co1` [Compound I-45], for which the “Synergistic activity (FIC value) ATCC25922” value in assay [1] is 0.52. In addition, the “Synergistic activity (FIC value) ATCC9027” value in assay [2] worked out at 1.25. Also, in assay [3], the “Synergistic activity (FIC value) ATCC19606” value is on record as 0.13. Besides, in assay [4], the “Synergistic activity (FIC value) ATCC13883” value is on record as 0.19. The “Antibacterial activity … ATCC25922” value in assay [5] was determined as 256 µg/mL. In addition, the “Antibacterial activity … ATCC9027” value in assay [6] was 256 µg/mL. Further, in assay [7], the “Antibacterial activity … ATCC19606” value was 256 µg/mL. In assay [8], the “Antibacterial activity … ATCC13883” value amounted to 256 µg/mL.
As for `O=[N+]([O-])c1cc(-c2nc(N=C3NCCCN3)sc2Br)ccc1Br` [Compound I-176], the “Synergistic activity (FIC value) ATCC25922” value in assay [1] is listed as 0.38. In assay [2], the “Synergistic activity (FIC value) ATCC9027” value is given as 0.53. Further, in assay [3], the “Synergistic activity (FIC value) ATCC19606” value was 0.13. For the same compound, the “Synergistic activity (FIC value) ATCC13883” value in assay [4] stood at 0.31. Also, the “Antibacterial activity … ATCC25922” value in assay [5] was found to be 256 µg/mL. Also, the “Antibacterial activity … ATCC9027” value in assay [6] was found to be 256 µg/mL. Besides, in assay [7], the “Antibacterial activity … ATCC19606” value stood at 256 µg/mL. For the same compound, the “Antibacterial activity … ATCC13883” value in assay [8] worked out at 256 µg/mL.
For the compound `NC(N)=Nc1nc(-c2cccc3ccsc23)c[nH]1` [Compound I-69], the “Synergistic activity (FIC value) ATCC25922” value in assay [1] is 1.25. The “Synergistic activity (FIC value) ATCC9027” value in assay [2] is 0.51. For the same compound, the “Synergistic activity (FIC value) ATCC19606” value in assay [3] was found to be 1.25. In addition, the “Synergistic activity (FIC value) ATCC13883” value in assay [4] was 1.25. The “Antibacterial activity … ATCC25922” value in assay [5] was 256 µg/mL. For the same compound, in assay [6], the “Antibacterial activity … ATCC9027” value is 256 µg/mL. For the same compound, in assay [7], the “Antibacterial activity … ATCC19606” value was determined as 256 µg/mL. In addition, in assay [8], the “Antibacterial activity … ATCC13883” value is 256 µg/mL.
Regarding `Cc1oc(N=C(N)N)nc1-c1cccc(C#N)c1-c1cccs1` [Compound I-79], the “Synergistic activity (FIC value) ATCC25922” value in assay [1] was found to be 0.63. In assay [2], the “Synergistic activity (FIC value) ATCC9027” value was 1.25. The “Synergistic activity (FIC value) ATCC19606” value in assay [3] was determined as 0.52. Further, in assay [4], the “Synergistic activity (FIC value) ATCC13883” value is on record as 0.52. Besides, the “Antibacterial activity … ATCC25922” value in assay [5] stood at 256 µg/mL. For the same compound, in assay [6], the “Antibacterial activity … ATCC9027” value was found to be 256 µg/mL. For the same compound, the “Antibacterial activity … ATCC19606” value in assay [7] was 256 µg/mL. Moreover, in assay [8], the “Antibacterial activity … ATCC13883” value is 256 µg/mL.
For the compound `NC(N)=Nc1nc(-c2cccc3ccccc23)cs1` [Compound I-55], the “Synergistic activity (FIC value) ATCC25922” value in assay [1] came out at 0.38. For the same compound, in assay [2], the “Synergistic activity (FIC value) ATCC9027” value is 0.53. The “Synergistic activity (FIC value) ATCC19606” value in assay [3] is 0.13. For the same compound, the “Synergistic activity (FIC value) ATCC13883” value in assay [4] stood at 0.31. The “Antibacterial activity … ATCC25922” value in assay [5] turned out to be 256 µg/mL. Besides, the “Antibacterial activity … ATCC9027” value in assay [6] amounted to 256 µg/mL. Moreover, in assay [7], the “Antibacterial activity … ATCC19606” value was determined as 256 µg/mL. In assay [8], the “Antibacterial activity … ATCC13883” value stood at 256 µg/mL.
